In US8313949B2, “Detecting phospholipidosis and diagnosing lysosomal storage disorders” (Nextcea Inc., priority 2009, dated 2012):

How the values were obtained:
[1] = test system: bronchoalveolar lavage (BAL) cells; conditions: patients with amiodarone pulmonary toxicity; Martin and Standing 1988; cited from earlier work
rats [2] = conditions: rat, in vivo
Procedure: The relationship between amiodarone, azithromycin, or citalopram exposure and the occurrence of drug-induced phospholipidosis was investigated in Fisher rats. Rats were treated with amiodarone (50 mg/kg/day), azithromycin (100 mg/kg/day), citalopram (90 mg/kg/day), or no drug for 4-weeks. Urine samples were collected from each animal and prepared for analysis using a liquid/liquid extraction method. The urine samples (200 μl urine per rat) were mixed with cold 3:1 chloroform/methanol (v/v) (400 μl) and vortexed before adding 0.1% formic acid (aq.) (100 μl). The samples were vortexed again, allowed to sit for 5 min, and centrifuged for 15 min. The bottom (organic) layer was carefully removed and concentrated to dryness. The samples were reconstituted to 30 μl with 0.05% formic acid in 2:1 acetonitrile/methanol (v/v).
The molecular profile of each urine sample was acquired using liquid chromatography coupled to mass spectrometry (LC/MS). Injections were made onto a 150×2.00 mm Synergi Hydro-RP column (Phenomenex, Torrance, Calif., USA) using an a Gilson 235 auto-injector (Gilson, Inc., Middletown, Wis., USA) and an Agilent 1100 binary pump (Agilent Technologies, Palo Alto, Calif., USA). Mobile phase A was 0.25% ammonium hydroxide, 0.05% formic acid in 88:12 methanol/water (v/v). Mobile phase B was 0.25% ammonium hydroxide, 0.05% formic acid in 80:20 methanol/hexane (v/v). […]

rats [3] = test: Urinary di-C22:6-BMP levels during 17-day azithromycin treatment (Example 4); assay type: in vivo, rat; conditions: azithromycin 150 mg/kg/day, all isoforms (FIG. 9)
Procedure: The methods described above were used to evaluate the tissue phospholipidosis induced by azithromycin (150 mg/kg/day) in rats over a 17-day period. Urine samples were collected from the rats on Days 11 and 17 and subjected to the assay. […] On Day 11, the mean level (n=5 rats per group) of di-C22:6-BMP in urine was increased by 2.6-fold in the rats treated with azithromycin compared to the controls. On Day 17, the mean level (n=5 rats per group) of di-C22:6-BMP in urine was increased approximately by 4.5-fold in the azithromycin treated rats compared to the control rats.

Row | SMILES | increase in total BMP in BAL cells compared to control subjects [1] | increase in total PG in BAL cells compared to control subjects [1] | level of di-22:6-PG in urine (rats [2]) | increase of mean level of di-C22:6-BMP in urine compared to controls, Day 11 (rats [3]; Day 11, n=5 rats per group) [fold] | increase of mean level of di-C22:6-BMP in urine compared to controls, Day 17 (rats [3]; Day 17, n=5 rats per group) [fold]
1 | CCCCc1oc2ccccc2c1C(=O)c1cc(I)c(OCCN(CC)CC)c(I)c1 [amiodarone] | +64% | +1866% | increased |  | 
2 | CC[C@H]1OC(=O)[C@H](C)[C@@H](O[C@H]2C[C@@](C)(OC)[C@@H](O)[C@H](C)O2)[C@H](C)[C@@H](O[C@@H]2O[C@H](C)C[C@H](N(C)C)[C@H]2O)[C@](C)(O)C[C@@H](C)CN(C)[C@H](C)[C@@H](O)[C@]1(C)O [azithromycin] |  |  |  | 2.6 | ~4.5
3 | CCN(CC)CCCC(C)Nc1ccnc2cc(Cl)ccc12 (stereo not drawn) [chloroquine] |  |  | not |  | 
